What was measured:
[1] = system: C57BL6xFVB mice; assay: HSPC mobilization to blood, CoPP compared with G-CSF; assay type: in vivo; settings: CoPP 10 mg/kg (15 μmol/kg) vs rhG-CSF 250 μg/kg, i.p. daily for five days
Procedure: FIG. 8—HSPC numbers in the blood of C57BL6xFVB mice treated with G-CSF and CoPP.
Effects of CoPP and exogenous G-CSF were compared. Mice were iterated with CoPP at the dose of 10 mg/kg (15 μmol/kg). Recombinant human G-CSF (rhG-CSF, Amgen) was used at the dose of 250 μg/kg. Compounds were injected i.p. daily for five days. Administration od CoPP mobilized higher number of HSPC (hematopoietic stem/progenitor cells) than administration of exogenous G-CSF (FIG. 8).

[2] = system: C3H and C57BL6xFVB mice; assay: flow cytometry of peripheral blood granulocytes in mice; assay type: in vivo
Source text: FIG. 3—the percentage of granulocytes in peripheral blood in C3H mice after administration of the test compounds; (test ANOVA+Bonferroni test),
FIG. 4—the percentage of granulocytes in the peripheral blood of C57BL6xFVB mice after administration of CoPP; (test ANOVA+Bonferroni test),
CoPP is used in scientific experiments, both in vitro and in vivo as heme oxygenase-1 inducer. […] In some of the experiments tin protoporphyrin IX (SnPP), which is an inhibitor of the enzymatic activity of HO-1, was also used.
(§1) CoPP was administered to mice intraperitoneally at a dose of 10 mg/kg of body weight, three times at intervals of two days. Control mice received only the solvent (DMSO). In one experiment tin protoporphyrin (SnPP) was also used.
The day after the last administration of CoPP the mice were sacrificed and samples were collected for analysis. Complete blood counts were obtained using a hematology analyzer. In addition, the phenotype and the quantity of leukocytes in the peripheral blood, bone marrow and spleen was analyzed in more detail using a flow cytometer. Moreover, concentrations of 32 cytokines and growth factors in plasma were analyzed. The results of analyzes indicate that mice that were treated with CoPP had increased number of white blood cells (WBC) in the blood compared to mice that received only DMSO (3-fold in C3H mice, 2-fold in C57BL6xFVB mice). […]

[3] = system: C3H and C57BL6xFVB mice; assay: complete blood counts (hematology analyzer) in mice after CoPP; assay type: in vivo; settings: for increase in number of granulocytes / increase in number of white blood cells (WBC) in blood compared to DMSO: three times at intervals of two days
Source text: The possibility of using CoPP for cell mobilization has been confirmed in experiments conducted on two different strains of mice: C3H (5 mice per group) and C57BL6xFVB (5-6 mice per group). The figures show:
FIG. 1—peripheral blood cell counts in C3H mice after administration of the test compounds (HCT—hematocrit, RBC—erythrocytes, WBC—leukocytes, LYM—lymphocytes, MON—monocytes, GRA—granulocytes, #—number of cells per mm^3, %—percentage of the population among all leukocytes; (ANOVA+Bonferroni test)
FIG. 2—peripheral blood cell counts in C57BL6xFVB strain after administration of CoPP; (test ANOVA+Bonferroni test)
as §1
(§2) The day after the last administration of CoPP the mice were sacrificed and samples were collected for analysis. Complete blood counts were obtained using a hematology analyzer. In addition, the phenotype and the quantity of leukocytes in the peripheral blood, bone marrow and spleen was analyzed in more detail using a flow cytometer. Moreover, concentrations of 32 cytokines and growth factors in plasma were analyzed. The results of analyzes indicate that mice that were treated with CoPP had increased number of white blood cells (WBC) in the blood compared to mice that received only DMSO (3-fold in C3H mice, 2-fold in C57BL6xFVB mice). In both strains, there was a significant increase in the number of granulocytes (6.7-fold in C3H mice, 4-fold in C57BL6xFVB mice). There were no changes in the parameters such as hematocrit (HCT) and the number of erythrocytes (RBC) (FIG. 1, FIG. 2)

[4] = solubility; assay type: physicochemical; settings: alkaline aqueous solutions
Source text: Cobalt porphyrins can be prepared by known methods. For example, cobalt protoporphyrin IX can be prepared using methods as described in: “Porphyrins and Metalloporphyrins” Ed. by K. M. Smith, Elsevier Scientific Pub. Co (1975) ISBN 0-444-41375-8 oraz Kenner, G. W., et al., Liebigs Ann. Chem. 1973, 1329-1338 and Burns, D. H., et al., J. Chem. Soc., Perkin Trans. 1, 1988, 3119. […] In the production process and the preparation of a medical agent cobalt protoporphyrin is proposed to be dissolved in an alkaline solution (eg. 0.2 M Na3PO4.12H20; ˜0.2 ml/ml final volume) and then with sterile water (˜0.7 ml/ml final volume), pH adjusted to 7.5-7.8 (eg. 0.3N HCl).

[5] = singlet oxygen generation by flash photolysis; assay type: physicochemical; settings: laser light at 355 nm
Procedure: FIG. 7—singlet oxygen generation quantum yield (ΦΔ) for CoPP and SnPP in reference to phenalenone, measured by flash photolysis.
Because of the fact that potential described side effects of administration of porphyrins are associated with photosensitization, causing the formation of toxic reactive oxygen species, it was evaluated if CoPP is a photosensitizer and thus may cause side effects. To this end, the ability to generate reactive oxygen species by CoPP was verified by flash photolysis. […] In contrast, in experiment with another porphyrin (SnPP) 89% of absorbed energy was used for generation of singlet oxygen (FIG. 7). It is therefore unlikely that CoPP will cause photosensitization, what often limits the clinical application of other compounds from the group of porphyrins.

[6] = system: cytokines and growth factors in plasma; assay: cytokines and growth factors in plasma (Luminex); assay type: in vivo, mice
Procedure: FIG. 5—concentration of cytokines and growth factors in plasma of C3H mice after administration of test compounds; (test ANOVA+Bonferroni test),
FIG. 6—concentration of cytokines and growth factors in plasma of C57BL6xFVB mice after administration of CoPP; (test ANOVA+Bonferroni test),
as §1, §2
In order to investigate the mechanism responsible for the increase of the leukocytes (especially granulocytes) number, after administration of CoPP, the concentrations of cytokines and growth factors in the plasma were measured using the Luminex system. An increase in levels of granulocyte colony stimulating factor (G-CSF), chemokines MCP-1 (CCL2) and IP-10 (CXCL-10) and interleukin 6 was observed (FIG. 5, FIG. 6).

[7] = both strains, 10 mg/kg i.p., three times

Row | Compound | number of HSPC mobilized compared with exogenous G-CSF [1] | mobilization of cells from bone marrow in HO-1 KO mice ([2]; HO-1 KO versus wild type mice, FIG. 4) | number of immature granulocytes (CD11b+/Ly6G low/Ly6C-/SCC mid phenotype) ([2]; peripheral blood, flow cytometer) | increase in number of granulocytes ([3]; C3H mice, 10 mg/kg i.p.) [fold] | increase in number of white blood cells (WBC) in blood compared to DMSO ([3]; C3H mice, 10 mg/kg i.p.) [fold] | increase in number of granulocytes ([3]; C57BL6xFVB mice, 10 mg/kg i.p.) [fold] | increase in number of white blood cells (WBC) in blood compared to DMSO ([3]; C57BL6xFVB mice, 10 mg/kg i.p.) [fold] | hematocrit (HCT) [3, 7] | number of erythrocytes (RBC) [3, 7] | solubility [4] | generation of singlet oxygen upon absorption of laser light [5] | plasma level of chemokine IP-10 (CXCL-10) [6] | plasma level of chemokine MCP-1 (CCL2) [6] | plasma level of granulocyte colony stimulating factor (G-CSF) [6] | plasma level of interleukin 6 [6] | effect on the measured parameters (blood counts, granulocytes, cytokines) ([3]; C3H mice, FIG. 1,3,5) | absorbed energy used for generation of singlet oxygen [5] [%]
1 | C=Cc1c(C)c2cc3[nH]c(cc4nc(cc5nc(cc1[nH]2)C(C)=C5CCC(=O)[O-])C(CCC(=O)[O-])=C4C)c(C)c3C=C.[Co+2] [CoPP, cobalt protoporphyrin IX] | higher number | works in a similar manner as in wild type mice | increase | 6.7 | 3 | 4 | 2 | no changes | no changes | soluble in alkaline aqueous solutions | does not generate singlet oxygen | increase | increase | increase | increase |  | 
2 | C=Cc1c2[n-]c(c1C)/C=c1\[n-]/c(c(C)c1C=C)=C\c1[n-]c(c(CCC(=O)O)c1C)C=c1[n-]/c(c(C)c1CCC(=O)O)=C\2.[Sn+4] [SnPP, tin protoporphyrin IX, reference compound] |  |  |  |  |  |  |  |  |  |  |  |  |  |  |  | did not affect the majority of the measured parameters | 89

Reference: patent publication US10328085B2, “Cobalt porphyrins for the treatment of blood-related disorders” (UNIWERSYTET JAGIELLONSKI, priority 2014, dated 2019)
